In patent US20230085307A1, “PYRIDAZINONE COMPOUND AND HERBICIDE” (NISSAN CHEMICAL CORPORATION, priority 2019, published 2023):

Experiments:
[1] = test system: late watergrass; experiment: Test Example 1: herbicidal activity, application before weed generation under submerged conditions (Table 16, symbol A); format: in vivo, late watergrass (Echinochloa oryzicola); details: amount of applied herbicide 320 g/ha
Method in brief: (§1)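 Emulsion formulation, water-diluted to set dose, was put onto the flooded surface (4 cm depth, alluvial soil) the same day weeds were sown and 2.5-leaf rice transplanted. After 3 weeks at 25-30 °C under glass, each species was rated 0 (≤5% kill) to 5 (≥90% kill).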

[2] = test system: Japanese bulrush; experiment: Test Example 1: herbicidal activity, application before weed generation under submerged conditions (Table 16, symbol B); format: in vivo, Japanese bulrush (Schoenoplectus juncoides); details: amount of applied herbicide 320 g/ha
Method in brief: as §1

[3] = test system: oval-leafed pondweed; experiment: Test Example 1: herbicidal activity, application before weed generation under submerged conditions (Table 16, symbol C); format: in vivo, oval-leafed pondweed (Monochoria vaginalis); details: amount of applied herbicide 320 g/ha
Method in brief: as §1

[4] = test system: late watergrass; experiment: Test Example 2: herbicidal activity, application during weed generation under submerged conditions (Table 17, symbol A); format: in vivo, late watergrass (Echinochloa oryzicola); details: AAH 320 g/ha; application during weed generation, submerged conditions
Method in brief: (§2)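 Herbicide emulsion, diluted with water to the chosen amount, is applied onto 4 cm floodwater over alluvial soil where the weeds were co-sown and raised at 25–30° C. Application timing: 1–2 leaves. Assessment: three weeks afterwards.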

[5] = test system: Japanese bulrush; experiment: Test Example 2: herbicidal activity, application during weed generation under submerged conditions (Table 17, symbol B); format: in vivo, Japanese bulrush (Schoenoplectus juncoides); details: AAH 320 g/ha; application during weed generation, submerged conditions
Method in brief: as §2

[6] = test system: oval-leafed pondweed; experiment: Test Example 2: herbicidal activity, application during weed generation under submerged conditions (Table 17, symbol C); format: in vivo, oval-leafed pondweed (Monochoria vaginalis); details: AAH 320 g/ha; application during weed generation, submerged conditions
Method in brief: as §2

[7] = test system: barnyard grass; experiment: Test Example 3: herbicidal effect by foliage application, Wagner pot (Table 18, symbol H); format: in vivo, barnyard grass (Echinochloa crus-galli); details: for herbicidal effect on H: barnyard grass: amount of applied herbicide 320 g/ha
Method in brief: (§3)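 Plants were sown in alluvial soil held under 0.1–0.5 cm standing water and grown 14 days in a greenhouse at 25–30 °C. An emulsifiable formulation, water-diluted to the set dose, was then sprayed onto the foliage, and effects were scored three weeks later using previously defined criteria.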

[8] = test system: Chinese sprangletop; experiment: Test Example 3: herbicidal effect by foliage application, Wagner pot (Table 18, symbol D); format: in vivo, chinese sprangletop (Leptochloa chinensis); details: for herbicidal effect on D: Chinese sprangletop: amount of applied herbicide 320 g/ha
Method in brief: as §3

[9] = test system: rice flat sedge; experiment: Test Example 3: herbicidal effect by foliage application, Wagner pot (Table 18, symbol E); format: in vivo, rice flat sedge (Cyperus iria); details: for herbicidal effect on E: rice flat sedge: amount of applied herbicide 320 g/ha
Method in brief: as §3

[10] = test system: southern crabgrass; experiment: Test Example 5: herbicidal effect by foliage application, plastic box (Table 20, symbol F); format: in vivo, southern crabgrass (Digitaria ciliaris); details: 320 g/ha; for F: southern crabgrass, herbicidal effect grade: foliage application, three weeks after application
Method in brief: (§4)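 Foliar spray test: emulsion formulation diluted in water to a set application rate, sprayed onto 14-day-old plants raised in diluvial soil at 25° C to 30° C under glass. Both herbicidal effect and crop effect rated visually three weeks later.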

[11] = test system: green foxtail; experiment: Test Example 5: herbicidal effect by foliage application, plastic box (Table 20, symbol G); format: in vivo, green foxtail (Setaria viridis); details: 320 g/ha; for G: green foxtail, herbicidal effect grade: foliage application, three weeks after application
Method in brief: as §4

[12] = test system: barnyard grass; experiment: Test Example 5: herbicidal effect by foliage application, plastic box (Table 20, symbol H); format: in vivo, barnyard grass (Echinochloa crus-galli); details: 320 g/ha; for H: barnyard grass, herbicidal effect grade: foliage application, three weeks after application
Method in brief: as §4

[13] = test system: wild oat; experiment: Test Example 5: herbicidal effect by foliage application, plastic box (Table 20, symbol I); format: in vivo, wild oat (Avena fatua); details: 320 g/ha; for I: wild oat, herbicidal effect grade: foliage application, three weeks after application
Method in brief: as §4

[14] = test system: blackgrass; experiment: Test Example 5: herbicidal effect by foliage application, plastic box (Table 20, symbol J); format: in vivo, blackgrass (Alopecurus myosuroides); details: 320 g/ha; for J: blackgrass, herbicidal effect grade: foliage application, three weeks after application
Method in brief: as §4

[15] = test system: Italian ryegrass; experiment: Test Example 5: herbicidal effect by foliage application, plastic box (Table 20, symbol K); format: in vivo, Italian ryegrass (Lolium multiflorum); details: 320 g/ha; for K: Italian ryegrass, herbicidal effect grade: foliage application, three weeks after application
Method in brief: as §4

[16] = test system: windgrass; experiment: Test Example 5: herbicidal effect by foliage application, plastic box (Table 20, symbol L); format: in vivo, windgrass (Apera spica-venti); details: 320 g/ha; for L: windgrass, herbicidal effect grade: foliage application, three weeks after application
Method in brief: as §4

[17] = test system: velvetleaf; experiment: Test Example 5: herbicidal effect by foliage application, plastic box (Table 20, symbol M); format: in vivo, velvetleaf (Abutilon theophrasti); details: 320 g/ha; for M: velvetleaf, herbicidal effect grade: foliage application, three weeks after application
Method in brief: as §4

[18] = test system: redroot pigweed; experiment: Test Example 5: herbicidal effect by foliage application, plastic box (Table 20, symbol N); format: in vivo, redroot pigweed (Amaranthus retroflexus); details: 320 g/ha; for N: redroot pigweed, herbicidal effect grade: foliage application, three weeks after application
Method in brief: as §4

[19] = test system: lambsquarters; experiment: Test Example 5: herbicidal effect by foliage application, plastic box (Table 20, symbol O); format: in vivo, lambsquarters (Chenopodium album); details: 320 g/ha; for O: lambsquarters, herbicidal effect grade: foliage application, three weeks after application
Method in brief: as §4

[20] = test system: chickweed; experiment: Test Example 5: herbicidal effect by foliage application, plastic box (Table 20, symbol P); format: in vivo, common chickweed (Stellaria media); details: 320 g/ha; for P: chickweed, herbicidal effect grade: foliage application, three weeks after application
Method in brief: as §4

[21] = test system: persian speedwell; experiment: Test Example 5: herbicidal effect by foliage application, plastic box (Table 20, symbol R); format: in vivo, Persian speedwell (Veronica persica); details: 320 g/ha; for R: persian speedwell, herbicidal effect grade: foliage application, three weeks after application
Method in brief: as §4

[22] = foliage application after 14-day growth, evaluated three weeks after application

| SMILES | Herbicidal effect, A: late watergrass [1] | Herbicidal effect, B: Japanese bulrush [2] | Herbicidal effect, C: oval-leafed pondweed [3] | herbicidal effect rating, A: late watergrass [4] | herbicidal effect rating, B: Japanese bulrush [5] | herbicidal effect rating, C: oval-leafed pondweed [6] | herbicidal effect on H: barnyard grass [7] | herbicidal effect on D: Chinese sprangletop [8] | herbicidal effect on E: rice flat sedge [9] | F: southern crabgrass, herbicidal effect grade [10] | G: green foxtail, herbicidal effect grade [11] | H: barnyard grass, herbicidal effect grade [12] | I: wild oat, herbicidal effect grade [13] | J: blackgrass, herbicidal effect grade [14] | K: Italian ryegrass, herbicidal effect grade [15] | L: windgrass, herbicidal effect grade [16] | M: velvetleaf, herbicidal effect grade [17] | N: redroot pigweed, herbicidal effect grade [18] | O: lambsquarters, herbicidal effect grade [19] | P: chickweed, herbicidal effect grade [20] | also measured |
| --- | --- | --- | --- | --- | --- | --- | --- | --- | --- | --- | --- | --- | --- | --- | --- | --- | --- | --- | --- | --- | --- |
| CCCC(=O)Oc1c(CC)nn(C)c(=O)c1-c1c(-c2ccc(Cl)cc2)sc2ccc(F)cc12 [2-409] | 3 (Herbicidal rate of 40% or more and less than 70%) | 3 (Herbicidal rate of 40% or more and less than 70%) | 2 (Herbicidal rate of 20% or more and less than 40%) | 2 (Herbicidal rate of 20% or more and less than 40%) | 3 (Herbicidal rate of 40% or more and less than 70%) | 3 (Herbicidal rate of 40% or more and less than 70%) | 5 (Herbicidal rate of 90% or more (almost completely withered)) | 4 (Herbicidal rate of 70% or more and less than 90%) | 5 (Herbicidal rate of 90% or more (almost completely withered)) | 3 (Herbicidal rate of 40% or more and less than 70%) | 4 (Herbicidal rate of 70% or more and less than 90%) | 3 (Herbicidal rate of 40% or more and less than 70%) | 0 (Herbicidal rate of 5% or less (almost no effect)) | 0 (Herbicidal rate of 5% or less (almost no effect)) | 1 (Herbicidal rate of 5% or more and less than 20%) | 0 (Herbicidal rate of 5% or less (almost no effect)) | 5 (Herbicidal rate of 90% or more (almost completely withered)) | 5 (Herbicidal rate of 90% or more (almost completely withered)) | 4 (Herbicidal rate of 70% or more and less than 90%) | 4 (Herbicidal rate of 70% or more and less than 90%) | R: persian speedwell, herbicidal effect grade [21]: 4 (Herbicidal rate of 70% or more and less than 90%) |
| CCCOc1ccc(-c2sc3ccc(F)cc3c2-c2c(O)c(CC)nn(C)c2=O)cc1 [2-418] | 4 (Herbicidal rate of 70% or more and less than 90%) | 4 (Herbicidal rate of 70% or more and less than 90%) | 2 (Herbicidal rate of 20% or more and less than 40%) | 2 (Herbicidal rate of 20% or more and less than 40%) | 3 (Herbicidal rate of 40% or more and less than 70%) | 0 (Herbicidal rate of 5% or less (almost no effect)) | 5 (Herbicidal rate of 90% or more (almost completely withered)) | 3 (Herbicidal rate of 40% or more and less than 70%) | 5 (Herbicidal rate of 90% or more (almost completely withered)) | 2 (Herbicidal rate of 20% or more and less than 40%) | 3 (Herbicidal rate of 40% or more and less than 70%) | 4 (Herbicidal rate of 70% or more and less than 90%) | 0 (Herbicidal rate of 5% or less (almost no effect)) | 4 (Herbicidal rate of 70% or more and less than 90%) | 4 (Herbicidal rate of 70% or more and less than 90%) | 4 (Herbicidal rate of 70% or more and less than 90%) | 5 (Herbicidal rate of 90% or more (almost completely withered)) | 5 (Herbicidal rate of 90% or more (almost completely withered)) | 5 (Herbicidal rate of 90% or more (almost completely withered)) | 5 (Herbicidal rate of 90% or more (almost completely withered)) | R: persian speedwell, herbicidal effect grade [21]: 5 (Herbicidal rate of 90% or more (almost completely withered)) |
| COc1ccc2c(-c3c(OC(=O)C(C)c4ccccc4)c(C)nn(C)c3=O)c(-c3ccccc3OC)sc2c1 (stereo not drawn) [3-157] | 5 (Herbicidal rate of 90% or more (almost completely withered)) | 3 (Herbicidal rate of 40% or more and less than 70%) | 3 (Herbicidal rate of 40% or more and less than 70%) | 4 (Herbicidal rate of 70% or more and less than 90%) | 3 (Herbicidal rate of 40% or more and less than 70%) | 4 (Herbicidal rate of 70% or more and less than 90%) |  |  |  |  |  |  |  |  |  |  |  |  |  |  | herbicidal effect on barnyard grass (H) ([7]; 320 g/ha): 5 (Herbicidal rate of 90% or more (almost completely withered)); herbicidal effect on Chinese sprangletop (D) ([8]; 320 g/ha): 3 (Herbicidal rate of 40% or more and less than 70%); herbicidal effect on rice flat sedge (E) ([9]; 320 g/ha): 3 (Herbicidal rate of 40% or more and less than 70%); herbicidal effect on F: southern crabgrass (evaluation grade 0-5) [10, 22]: 4 (Herbicidal rate of 70% or more and less than 90%); herbicidal effect on G: green foxtail (evaluation grade 0-5) [11, 22]: 4 (Herbicidal rate of 70% or more and less than 90%); herbicidal effect on H: barnyard grass (evaluation grade 0-5) [12, 22]: 5 (Herbicidal rate of 90% or more (almost completely withered)); herbicidal effect on I: wild oat (evaluation grade 0-5) [13, 22]: 3 (Herbicidal rate of 40% or more and less than 70%); herbicidal effect on J: blackgrass (evaluation grade 0-5) [14, 22]: 4 (Herbicidal rate of 70% or more and less than 90%); herbicidal effect on K: Italian ryegrass (evaluation grade 0-5) [15, 22]: 3 (Herbicidal rate of 40% or more and less than 70%); herbicidal effect on L: windgrass (evaluation grade 0-5) [16, 22]: 5 (Herbicidal rate of 90% or more (almost completely withered)); herbicidal effect on M: velvetleaf (evaluation grade 0-5) [17, 22]: 5 (Herbicidal rate of 90% or more (almost completely withered)); herbicidal effect on N: redroot pigweed (evaluation grade 0-5) [18, 22]: 4 (Herbicidal rate of 70% or more and less than 90%); herbicidal effect on O: lambsquarters (evaluation grade 0-5) [19, 22]: 4 (Herbicidal rate of 70% or more and less than 90%); herbicidal effect on P: chickweed (evaluation grade 0-5) [20, 22]: 4 (Herbicidal rate of 70% or more and less than 90%); herbicidal effect on R: persian speedwell (evaluation grade 0-5) [21, 22]: 4 (Herbicidal rate of 70% or more and less than 90%) |
| CCCC(=O)Oc1c(CC)nn(C)c(=O)c1-c1c(-c2ccc(OC(F)(F)F)cc2)sc2ccc(F)cc12 [2-413] | 3 (Herbicidal rate of 40% or more and less than 70%) | 0 (Herbicidal rate of 5% or less (almost no effect)) | 0 (Herbicidal rate of 5% or less (almost no effect)) | 3 (Herbicidal rate of 40% or more and less than 70%) | 1 (Herbicidal rate of 5% or more and less than 20%) | 0 (Herbicidal rate of 5% or less (almost no effect)) | 5 (Herbicidal rate of 90% or more (almost completely withered)) | 4 (Herbicidal rate of 70% or more and less than 90%) | 4 (Herbicidal rate of 70% or more and less than 90%) | 0 (Herbicidal rate of 5% or less (almost no effect)) | 3 (Herbicidal rate of 40% or more and less than 70%) | 1 (Herbicidal rate of 5% or more and less than 20%) | 0 (Herbicidal rate of 5% or less (almost no effect)) | 0 (Herbicidal rate of 5% or less (almost no effect)) | 2 (Herbicidal rate of 20% or more and less than 40%) | 0 (Herbicidal rate of 5% or less (almost no effect)) | 4 (Herbicidal rate of 70% or more and less than 90%) | 4 (Herbicidal rate of 70% or more and less than 90%) | 4 (Herbicidal rate of 70% or more and less than 90%) | 5 (Herbicidal rate of 90% or more (almost completely withered)) | R: persian speedwell, herbicidal effect grade [21]: 5 (Herbicidal rate of 90% or more (almost completely withered)) |
